pIC50: −log10 of the molar value. Bounds are passed on as bounds.

For assay [1], the target named is T1, Enoyl-[acyl-carrier-protein] reductase [NADH] FabI (Haemophilus influenzae (strain ATCC 51907 / DSM 11121 / KW20 / Rd), UniProt P44432).
T1 sequence (P44432 whole entry): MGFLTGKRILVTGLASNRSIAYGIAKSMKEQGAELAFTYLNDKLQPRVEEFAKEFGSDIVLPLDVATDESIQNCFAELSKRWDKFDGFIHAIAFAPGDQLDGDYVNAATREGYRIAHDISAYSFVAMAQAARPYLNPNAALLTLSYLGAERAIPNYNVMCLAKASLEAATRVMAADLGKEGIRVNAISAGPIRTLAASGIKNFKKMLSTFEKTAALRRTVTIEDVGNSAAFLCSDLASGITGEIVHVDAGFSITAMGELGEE
Nature of the assay: Enzyme Inhibition Assay. The note with it: 30 °C. As to the method:
(§1) Assays were carried out in half-area, 96-well microtiter plates. Compounds were evaluated in assay mixtures containing components specific for each enzyme. […] The consumption of NAD(P)H was monitored for 20 min at 30 °C by following the change in absorbance at 340 nm. IC50 values were estimated from a fit of the initial velocities to a standard equation.

Assay [2] has as its target T2, Enoyl-[acyl-carrier-protein] reductase [NADPH] FabI (Staphylococcus aureus (strain MRSA252), UniProt Q6GI75).
T2 sequence (Q6GI75 whole entry): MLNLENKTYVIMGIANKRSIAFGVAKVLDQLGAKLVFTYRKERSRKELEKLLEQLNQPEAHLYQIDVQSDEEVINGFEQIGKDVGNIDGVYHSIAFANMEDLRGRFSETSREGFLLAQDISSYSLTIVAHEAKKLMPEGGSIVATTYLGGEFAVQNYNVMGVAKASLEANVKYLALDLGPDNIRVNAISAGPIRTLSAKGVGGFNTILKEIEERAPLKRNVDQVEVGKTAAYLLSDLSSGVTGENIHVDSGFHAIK
In words: Enzyme Inhibition Assay. To be noted: pH 6.5; 30 °C. As to the method:
as §1

For the compound `COC(=O)C[C@@H]1Nc2ccc(C(=O)N(C)Cc3cc4ccccc4n3C)cc2CN(C)C1=O` [(2S)-2-[(Carbomethoxy)methyl]-N,4-dimethyl-N-(1-methyl-1H-indol-2-ylmethyl)-3-oxo-2,3,4,5-tetrahydro-1H-1,4-benzodiazepine-7-carboxamide], the pIC50 in assay [1] was under 4.00; in assay [2], 3.17.

Take `CN(Cc1cc2ccccc2n1C)C(=O)/C=C/c1ccc(N)cc1` [(E)-3-(4-Aminophenyl)-N-methyl-N-(1-methyl-1H-indol-2-ylmethyl)acrylamide]: the pIC50 in assay [2] was 4.95.

For the compound `CN(Cc1cc2ccccc2n1C)C(=O)c1ccccc1` [N-Methyl-N-(1-methyl-1H-indol-2-ylmethyl)benzamide], the pIC50 in assay [1] was under 4.00.

The pIC50 is the negative decadic logarithm of the IC50, by convention in mol/L.

Values taken from BindingDB's records for doi:10.1021/jm020050+ (Glaxosmithkline, 2002).
